Results from patent US20080091033A1, “Nonsolvate-Form Crystal of Polymethine Compound, Process for Producing the Same and Use Thereof” (YAMAMOTO CHEMICALS, INC., priority 2004, published 2008).
Where a name gives a salt, the structure may show the parent alone.

Legend:
[1] = solution stability test (decomposition percentage from absorbance before and after standing); type: physicochemical; details: 5% (w/v) in ethanol/methyl ethyl ketone (1/1 by volume), room temperature, 10 days of standing
Description: A solution stability test was carried out in the following manner.
Each polymethine compound specified below in Table 1 was dissolved in a mixture of ethanol and methyl ethyl ketone (1/1 by volume) to a concentration of 5% (w/v) and the solution was allowed to stand in a room (at room temperature) for 10 days. The absorbance (gram extinction coefficient) of the solution was measured before and after standing, and the decomposition percentage was calculated using the following formula.
Decomposition percentage (%)=[(absorbance just after preparation of solution−absorbance after 10 days of standing)/(absorbance just after preparation of solution)]×100

[2] = solubility in methanol and ethanol; type: physicochemical; details: for solubility in ethanol: solvent ethanol; for solubility in methanol: solvent methanol

Row | Decomposition percentage [1] [%] | solubility in ethanol [2] [%] | solubility in methanol [2] [%] | melting point | Structure (SMILES)
1 | 2.1 | ≥ 15 | ≥ 15 |  | CN1/C(=C\C=C2/CCC(/C=C/C3=[N+](C)c4ccccc4C3(C)C)=C2Cl)C(C)(C)c2ccccc21 [Example 2]
2 | 8.1 |  |  |  | CN1/C(=C\C=C2/CCC(/C=C/C3=[N+](C)c4ccccc4C3(C)C)=C2Cl)C(C)(C)c2ccccc21 [Comparative Example 1, reference compound]
3 |  |  |  | 199 to 200 °C (dec.) | CN1/C(=C\C=C2/CCC(/C=C/C3=[N+](C)c4ccccc4C3(C)C)=C2Cl)C(C)(C)c2ccccc21 (as salt: toluenesulfonate) (hydrate or solvate) [Example 1]
4 |  | ≥ 15 | ≥ 15 |  | CN1/C(=C\C=C2/CCC(/C=C/C3=[N+](C)c4ccccc4C3(C)C)=C2Cl)C(C)(C)c2ccccc21 [Example 5]

The remaining lines, values behind:

Row | Structure (SMILES) | Decomposition percentage [1] [%] | solubility in ethanol [2] [%] | solubility in methanol [2] [%] | melting point
5 | CN1/C(=C\C=C2/CCC(/C=C/C3=[N+](C)c4ccccc4C3(C)C)=C2Cl)C(C)(C)c2ccccc21 [Example 3] | 2.2 | ≥ 15 | ≥ 15 | 
6 | CN1/C(=C\C=C2/CCC(/C=C/C3=[N+](C)c4ccccc4C3(C)C)=C2Cl)C(C)(C)c2ccccc21 (as salt: toluenesulfonate) (hydrate or solvate) [Example 2] |  |  |  | 201 to 203 °C (dec.)
7 | CN1/C(=C\C=C2/CCC(/C=C/C3=[N+](C)c4ccccc4C3(C)C)=C2Cl)C(C)(C)c2ccccc21 [Example 4] | 1.9 | ≥ 15 | ≥ 15 | 
8 | CN1/C(=C\C=C2/CCC(/C=C/C3=[N+](C)c4ccccc4C3(C)C)=C2Cl)C(C)(C)c2ccccc21 [Example 1] | 2.0 | ≥ 15 | ≥ 15 | 
9 | CN1/C(=C\C=C2/CCC(/C=C/C3=[N+](C)c4ccccc4C3(C)C)=C2Cl)C(C)(C)c2ccccc21 (as salt: toluenesulfonate) (hydrate or solvate) [Example 3] |  |  |  | 198 to 199 °C (dec.)
